How the values were obtained:
K-12 (empty pCA24N) = assay: MIC of strains harboring ASKA plasmids; assay type: cell-based, Escherichia coli; settings: 0.1 mM IPTG
EKO-35 wcaC (pCA24N) = assay: MIC of strains harboring ASKA plasmids; assay type: cell-based, Escherichia coli; settings: 0.1 mM IPTG

Cn1cc(Br)c(-c2cccc(NC(=O)Nc3ccc(OC(F)(F)F)cc3)c2)n1 [compound 14]
>5 μg/mL: MIC, K-12 (empty pCA24N), Chlor + (K-12 (empty pCA24N); 25 μg/mL chloramphenicol selection) | MIC, K-12 (empty pCA24N), Chlor − (K-12 (empty pCA24N); no plasmid selection) | MIC, EKO-35 wcaC (pCA24N), Chlor + (EKO-35 wcaC (pCA24N); 4 μg/mL chloramphenicol selection) | MIC, EKO-35 wcaC (pCA24N), Chlor − (EKO-35 wcaC (pCA24N); no plasmid selection)

Reference: US20230407243A1, “GENETIC PLATFORM TO INVESTIGATE THE FUNCTIONS OF BACTERIAL DRUG EFFLUX PUMPS” (priority 2022, published 2023)
